Results taken from patent publication US12559474B2, “Triazine derivatives having virus replication inhibitory activity and pharmaceutical composition comprising the same” (priority 2021, dated 2026).
Read-outs that look alike come from different tables or passages of the source.

How the values were obtained:
SARS-CoV-2 3CL protease = SARS-CoV-2 3CL protease (Severe acute respiratory syndrome coronavirus 2, UniProt P0DTD1); test: biochemical; conditions: 50% SARS-CoV-2 3CL protease inhibitory concentration, read-out: IC50
SARS-CoV-2 = test: microbe, parasite or virus in culture; type: cell-based; conditions: Severe acute respiratory syndrome coronavirus 2, VeroE6/TMPRSS2, 72 h, 50% SARS-CoV-2 infected cell death inhibitory concentration, VeroE6/TMPRSS2 cells, 3 days culture

Structure (SMILES)	IC50 (SARS-CoV-2 3CL protease; given as class symbols)	EC50 (SARS-CoV-2; class symbols)	IC50 (SARS-CoV-2 3CL protease; RapidFire MS)	EC50 (SARS-CoV-2; CellTiter-Glo 2.0)
Cc1nc2cc(Nc3nc(=O)n(Cc4ccc[nH]c4=O)c(=O)n3Cc3cc(F)c(F)c(F)c3)c(Cl)cc2o1 [Compound I-0461]	< 100 nM	1000 to 10000 nM		
COC(=O)COc1ccc(Nc2nc(=O)n(Cc3ccc[nH]c3=O)c(=O)n2Cc2cc(F)c(F)c(F)c2)c(Cl)c1 [Compound I-0462]	< 100 nM	1000 to 10000 nM		
CC(=O)Nc1nc2cc(Cl)c(Nc3nc(=O)n(Cc4ccc[nH]c4=O)c(=O)n3Cc3cc(F)c(F)c(F)c3)cc2s1 [Compound I-0465]	< 100 nM	1000 to 10000 nM	4.2 nM	3270 nM
CC(C)(C)OC(=O)Nc1nc2cc(Cl)c(Nc3nc(=O)n(Cc4ccc[nH]c4=O)c(=O)n3Cc3cc(F)c(F)c(F)c3)cc2s1 [Compound I-0466]	< 100 nM	< 1000 nM		
CNc1nc2cc(Cl)c(Nc3nc(=O)n(Cc4ccc[nH]c4=O)c(=O)n3Cc3cc(F)c(F)c(F)c3)cc2s1 [Compound I-0467]	< 100 nM	1000 to 10000 nM		
CCNc1nc2cc(Cl)c(Nc3nc(=O)n(Cc4ccc[nH]c4=O)c(=O)n3Cc3cc(F)c(F)c(F)c3)cc2s1 [Compound I-0468]	< 100 nM	1000 to 10000 nM		
O=c1[nH]cccc1Cn1c(=O)nc(Nc2cc3cn(C4CC(F)(F)C4)nc3cc2Cl)n(Cc2cc(F)c(F)c(F)c2)c1=O [Compound I-0470]	< 100 nM	1000 to 10000 nM		
CC(=O)NCCn1cc2cc(Nc3nc(=O)n(-c4cncc5ccccc45)c(=O)n3Cc3cc(F)c(F)c(F)c3)c(Cl)cc2n1 [Compound I-0471]	< 100 nM	1000 to 10000 nM		
O=c1nc(Nc2ccc3nn(CC(F)F)cc3c2)n(Cc2cc(F)c(F)c(F)c2)c(=O)n1-c1cncc2ccccc12 [Compound I-0472]	< 100 nM	< 1000 nM		
COc1ccc(Nc2nc(=O)n(-c3cncc4ccccc34)c(=O)n2Cc2cc(F)c(F)c(C#N)c2)cc1 [Compound I-0480]			6.5 nM	72.6 nM
N#Cc1cc(Cn2c(Nc3ccc4c(c3)CCO4)nc(=O)n(-c3cncc4ccccc34)c2=O)cc(F)c1F [Compound I-0481]			2.7 nM	43.2 nM
Cn1cnc(Cn2c(=O)nc(Nc3cc4c(cc3Cl)OCC4)n(Cc3cc(F)c(F)c(F)c3)c2=O)n1 [Compound I-0482]			15 nM	385 nM
Cn1cnc(Cn2c(=O)nc(Nc3cc4cn(C)nc4cc3Cl)n(Cc3cc(F)c(F)c(F)c3F)c2=O)n1 [Compound I-0483]			9.8 nM	395 nM
Cc1cncc(-n2c(=O)nc(Nc3ccc4nn(CC(F)(F)F)cc4c3)n(Cc3cc(C#N)ccc3Cl)c2=O)c1 [II-0001]			3.4 nM	466 nM
CN(C)C(=O)Cn1cc2cc(Nc3nc(=O)n(-c4cncc5ccccc45)c(=O)n3Cc3cc(F)c(F)cc3F)c(Cl)cc2n1 [II-0002]	< 100 nM	1000 to 10000 nM		
Cn1cnc(Cn2cc3cc(Nc4nc(=O)n(Cc5ncn(C)n5)c(=O)n4Cc4cc(Cl)c(F)cc4F)c(Cl)cc3n2)n1 [II-0003]			6 nM	17800 nM
Cn1cnc(Cn2c(=O)nc(Nc3cc4cn(Cc5ccccn5)nc4cc3Cl)n(Cc3cc(Cl)c(F)cc3F)c2=O)n1 [II-0005]	< 100 nM	1000 to 10000 nM		
Cn1cnc(Cn2c(=O)nc(Nc3cc4cn(Cc5ccccn5)nc4cc3Cl)n(Cc3cc(F)c(F)c(Cl)c3)c2=O)n1 [II-0006]	< 100 nM	1000 to 10000 nM		
Cc1cncc(-n2c(=O)nc(Nc3cc4cn(CCN5CCOCC5)nc4cc3Cl)n(Cc3cc(F)c(F)cc3F)c2=O)c1 [II-0007]	< 100 nM	< 1000 nM		
Cn1cc2cc(Nc3nc(=O)n(Cc4cc5ccsc5[nH]c4=O)c(=O)n3Cc3ccc(F)c(C#N)c3)c(Cl)cc2n1 [II-0008]	< 100 nM	1000 to 10000 nM		
CCn1cc2cc(Nc3nc(=O)n(-c4cncc(C)c4)c(=O)n3Cc3ccc(F)c(C#N)c3)ccc2n1 [II-0010]			19 nM	940 nM
CC(=O)Nc1nc2cc(F)c(Nc3nc(=O)n(-c4cncc(C)c4)c(=O)n3Cc3ccc(F)c(C#N)c3)cc2s1 [II-0011]	< 100 nM	1000 to 10000 nM		
COc1ccc(Nc2nc(=O)n(Cc3cc(N4CCCC4)c[nH]c3=O)c(=O)n2Cc2cc(F)c(F)c(F)c2)cc1 [II-0014]			2400 nM	22100 nM
Cc1cncc(-n2c(=O)nc(Nc3cc4cn(C)nc4cc3Cl)n(Cc3cc(C#N)c(F)cc3C)c2=O)c1 [II-0015]			1.5 nM	35 nM

Structure (SMILES)	IC50 (SARS-CoV-2 3CL protease; given as class symbols)	EC50 (SARS-CoV-2; class symbols)	IC50 (SARS-CoV-2 3CL protease; RapidFire MS)	EC50 (SARS-CoV-2; CellTiter-Glo 2.0)
Cn1cnc(Cn2c(=O)nc(Nc3cc4c(cc3Cl)OCC4)n(Cc3cc(F)c(F)c(F)c3F)c2=O)n1 [II-0017]	< 100 nM	< 1000 nM		
Cc1cncc(-n2c(=O)nc(Nc3cc4cn(C)nc4cc3Cl)n(Cc3cc(F)c(F)cc3Cc3cnn(C)c3)c2=O)c1 [II-0018]	< 100 nM	1000 to 10000 nM		
Cc1cncc(-n2c(=O)nc(Nc3cc4cn(C)nc4cc3Cl)n(Cc3ccc(F)c(C#N)c3C)c2=O)c1 [II-0020]	< 100 nM	1000 to 10000 nM		
O=c1[nH]cc(F)cc1Cn1c(=O)nc(Nc2cc3c(cc2Cl)OCC3)n(Cc2cc(F)c(F)cc2F)c1=O [II-0022]	< 100 nM	< 1000 nM		
Cc1cncc(-n2c(=O)nc(Nc3cc4cn(C)nc4cc3Cl)n(Cc3cc(C#N)c(F)cc3CC(C)C)c2=O)c1 [II-0023]	< 100 nM	< 1000 nM		
Cc1cncc(-n2c(=O)nc(Nc3cc4cn(C)nc4cc3Cl)n(Cc3cc(C#N)ccc3CCC(C)(C)O)c2=O)c1 [II-0024]	< 100 nM	1000 to 10000 nM		
Cc1cncc(-n2c(=O)nc(Nc3cc4cn(C)nc4cc3Cl)n(Cc3cc(F)c(F)cc3Cc3cccc(CO)c3)c2=O)c1 [II-0025]	< 100 nM	8000 nM		
Cc1cncc(-n2c(=O)nc(Nc3cc4cn(C)nc4cc3Cl)n(Cc3cc(C#N)ccc3Cc3cccc(F)c3)c2=O)c1 [II-0027]	< 100 nM	< 1000 nM		
Cc1cncc(-n2c(=O)nc(Nc3cc4cn(C)nc4cc3Cl)n(Cc3ccc(F)c(F)c3)c2=O)c1 [II-0028]	< 100 nM	< 1000 nM		
N#Cc1cc(F)cc(Cn2c(Nc3cc4c(cc3Cl)OCC4)nc(=O)n(Cc3ccc[nH]c3=O)c2=O)c1 [II-0029]	< 100 nM	1000 to 10000 nM		
O=c1[nH]c2sccc2cc1Cn1c(=O)nc(Nc2cc3cn(CCO)nc3cc2Cl)n(Cc2cc(F)c(F)c(F)c2)c1=O [II-0031]	< 100 nM	1000 to 10000 nM		
O=c1nc(Nc2cc3cn(CCO)nc3cc2Cl)n(Cc2cc(F)c(F)cc2F)c(=O)n1-c1cncc2ccccc12 [II-0032]	< 100 nM	< 1000 nM		
CCn1cc2cc(Nc3nc(=O)n(-c4cncc(Cl)c4)c(=O)n3Cc3cc(C#N)ccc3C)ccc2n1 [II-0034]			7.3 nM	234 nM
Cc1cncc(-n2c(=O)nc(Nc3cc4sc(NC(C)C)nc4cc3Cl)n(Cc3ccc(F)c(C#N)c3)c2=O)c1 [II-0035]	< 100 nM	< 1000 nM		
CCn1cc2cc(Nc3nc(=O)n(-c4cncc(Cl)c4)c(=O)n3Cc3cc(C#N)ccc3Cl)ccc2n1 [II-0036]			8.3 nM	355 nM
CC(C)Nc1nc2cc(Cl)c(Nc3nc(=O)n(Cc4ncn(C)n4)c(=O)n3Cc3cc(F)c(F)cc3F)cc2s1 [II-0037]	< 100 nM	1000 to 10000 nM		
Cc1cncc(-n2c(=O)nc(Nc3ccc4nn(C(C)C)cc4c3)n(Cc3ccc(F)c(C#N)c3)c2=O)c1 [II-0038]	< 100 nM	1000 to 10000 nM		
Cn1cnc(Cn2c(=O)nc(Nc3cc4cccnc4cc3Cl)n(Cc3cc(F)c(F)cc3F)c2=O)n1 [II-0039]	< 100 nM	1000 to 10000 nM		
CNc1nc2ccc(Nc3nc(=O)n(Cc4cc(Cl)c[nH]c4=O)c(=O)n3Cc3cc(F)c(F)c(F)c3)cc2s1 [II-0041]	< 100 nM	1000 to 10000 nM		
Cc1cncc(-n2c(=O)nc(Nc3cc4cn(C)nc4cc3Cl)n(Cc3cc(Cl)c(F)cc3C)c2=O)c1 [II-0043]			5.8 nM	232 nM
Cc1cc(F)c(Cl)cc1Cn1c(Nc2cc3cn(C)nc3cc2Cl)nc(=O)n(Cc2ncn(C)n2)c1=O [II-0044]	< 100 nM	< 1000 nM		
Cn1cnc(Cn2c(=O)nc(Nc3cc4cn(C)nc4cc3Cl)n(Cc3cc(F)c(F)c(Cl)c3)c2=O)n1 [II-0045]			4.7 nM	218 nM
Cn1cnc(Cn2c(=O)nc(Nc3cc4c(cc3Cl)OCC4)n(Cc3cc(F)c(F)c(Cl)c3)c2=O)n1 [II-0046]	< 100 nM	< 1000 nM		
O=C1CN=CC=C1Cn1c(=O)nc(Nc2cc3c(cc2Cl)OCCC3)n(Cc2cc(F)c(F)cc2F)c1=O [II-0047]	< 100 nM	< 1000 nM		
